According to the NIST ThermoML archive (doi:10.1021/je034017j):
± gives the expanded uncertainty stated by the source.

What was measured:
[1] = xn = mol fraction of the nth substance listed; settings: 101 kPa, Liquid
[2] = Liquid; for viscosity: 101.33 kPa; for mass density: 101 kPa

CCCCCCCC [octane] + CCCCCCO
kinematic viscosity ([1]; 293.15 K, x1 = 1): 7.71e-07 ± 1e-08 m2/s
mass density ([1]; 293.15 K, x1 = 1): 702.54 ± 0.3 kg/m3
kinematic viscosity ([1]; 303.15 K, x1 = 1): 6.96e-07 ± 9e-09 m2/s
mass density ([1]; 303.15 K, x1 = 1): 694.35 ± 0.31 kg/m3
kinematic viscosity ([1]; 313.15 K, x1 = 1): 6.27e-07 ± 8e-09 m2/s
mass density ([1]; 313.15 K, x1 = 1): 686.12 ± 0.32 kg/m3

CCCCCCO [hexan-1-ol] + CCCCC(=O)OC
kinematic viscosity ([1]; 293.15 K, Capillary tube (Ostwald / Ubbelohde) method, x2 = 0): 6.609e-06 ± 4.4e-08 m2/s
mass density ([1]; 293.15 K, x2 = 0): 818.84 ± 0.29 kg/m3
kinematic viscosity ([1]; 303.15 K, Capillary tube (Ostwald / Ubbelohde) method, x2 = 0): 4.885e-06 ± 3.3e-08 m2/s
mass density ([1]; 303.15 K, x2 = 0): 811.56 ± 0.29 kg/m3
kinematic viscosity ([1]; 313.15 K, Capillary tube (Ostwald / Ubbelohde) method, x2 = 0): 3.688e-06 ± 2.5e-08 m2/s
mass density ([1]; 313.15 K, x2 = 0): 804.28 ± 0.3 kg/m3

CCCCCCO [hexan-1-ol] + CCCCCCC(=O)OC
kinematic viscosity ([1]; 293.15 K, x2 = 0): 6.61e-06 ± 6.9e-08 m2/s
mass density ([1]; 293.15 K, x2 = 0): 818.84 ± 0.29 kg/m3
kinematic viscosity ([1]; 303.15 K, x2 = 0): 4.88e-06 ± 5.4e-08 m2/s
mass density ([1]; 303.15 K, x2 = 0): 811.56 ± 0.29 kg/m3
kinematic viscosity ([1]; 313.15 K, x2 = 0): 3.69e-06 ± 4.2e-08 m2/s
mass density ([1]; 313.15 K, x2 = 0): 804.28 ± 0.3 kg/m3

CCCCCCC(=O)OC [methyl heptanoate]
viscosity ([2]; 283.15 K): 1.32 ± 0.017 mPa·s
mass density ([2]; 293.15 K): 879.96 ± 0.43 kg/m3
viscosity ([2]; 293.15 K): 1.112 ± 0.014 mPa·s
viscosity ([2]; 298.15 K): 1.023 ± 0.013 mPa·s
mass density ([2]; 303.15 K): 870.73 ± 0.43 kg/m3
viscosity ([2]; 303.15 K): 0.95 ± 0.013 mPa·s
mass density ([2]; 313.15 K): 861.65 ± 0.43 kg/m3
viscosity ([2]; 313.15 K): 0.823 ± 0.011 mPa·s

CCCCC(=O)OC [methyl pentanoate]
viscosity ([2]; 283.15 K): 0.816 ± 0.011 mPa·s
mass density ([2]; 293.15 K): 889.75 ± 0.47 kg/m3
viscosity ([2]; 293.15 K): 0.712 ± 0.01 mPa·s
viscosity ([2]; 298.15 K): 0.661 ± 0.009 mPa·s
mass density ([2]; 303.15 K): 879.51 ± 0.47 kg/m3
viscosity ([2]; 303.15 K): 0.623 ± 0.009 mPa·s
mass density ([2]; 313.15 K): 869.32 ± 0.47 kg/m3
viscosity ([2]; 313.15 K): 0.551 ± 0.008 mPa·s

CCCCCCO [hexan-1-ol]
mass density ([2]; 293.15 K): 818.84 ± 0.29 kg/m3
viscosity ([2]; 293.15 K): 5.412 ± 0.059 mPa·s
viscosity ([2]; 298.15 K): 4.596 ± 0.051 mPa·s
mass density ([2]; 303.15 K): 811.56 ± 0.29 kg/m3
viscosity ([2]; 303.15 K): 3.964 ± 0.045 mPa·s
mass density ([2]; 313.15 K): 804.28 ± 0.3 kg/m3
viscosity ([2]; 313.15 K): 2.966 ± 0.034 mPa·s

CCCCCCCC [octane]
viscosity ([2]; 283.15 K): 0.614 ± 0.008 mPa·s
mass density ([2]; 293.15 K): 702.54 ± 0.3 kg/m3
viscosity ([2]; 293.15 K): 0.542 ± 0.007 mPa·s
viscosity ([2]; 298.15 K): 0.508 ± 0.007 mPa·s
mass density ([2]; 303.15 K): 694.35 ± 0.31 kg/m3
viscosity ([2]; 303.15 K): 0.483 ± 0.007 mPa·s
mass density ([2]; 313.15 K): 686.12 ± 0.32 kg/m3
viscosity ([2]; 313.15 K): 0.43 ± 0.006 mPa·s

CCCCCCC(=O)OC [methyl heptanoate] + CCCCCCO
kinematic viscosity ([1]; 293.15 K, x1 = 0.0702): 5.11e-06 ± 5.7e-08 m2/s
mass density ([1]; 293.15 K, x1 = 0.0702): 824.02 ± 0.3 kg/m3
kinematic viscosity ([1]; 293.15 K, x1 = 0.1168): 4.4e-06 ± 5e-08 m2/s
mass density ([1]; 293.15 K, x1 = 0.1168): 827.4 ± 0.3 kg/m3
kinematic viscosity ([1]; 293.15 K, x1 = 0.189): 3.59e-06 ± 4.1e-08 m2/s
mass density ([1]; 293.15 K, x1 = 0.189): 832.46 ± 0.31 kg/m3
kinematic viscosity ([1]; 293.15 K, x1 = 0.3018): 2.76e-06 ± 3.2e-08 m2/s
mass density ([1]; 293.15 K, x1 = 0.3018): 840.04 ± 0.32 kg/m3
kinematic viscosity ([1]; 293.15 K, x1 = 0.3966): 2.31e-06 ± 2.7e-08 m2/s
mass density ([1]; 293.15 K, x1 = 0.3966): 846.13 ± 0.33 kg/m3
kinematic viscosity ([1]; 293.15 K, x1 = 0.4898): 1.99e-06 ± 2.4e-08 m2/s
mass density ([1]; 293.15 K, x1 = 0.4898): 851.87 ± 0.35 kg/m3
kinematic viscosity ([1]; 293.15 K, x1 = 0.594): 1.74e-06 ± 2.1e-08 m2/s
mass density ([1]; 293.15 K, x1 = 0.594): 858.04 ± 0.36 kg/m3
kinematic viscosity ([1]; 293.15 K, x1 = 0.7085): 1.52e-06 ± 1.9e-08 m2/s
mass density ([1]; 293.15 K, x1 = 0.7085): 864.51 ± 0.38 kg/m3
kinematic viscosity ([1]; 293.15 K, x1 = 0.7917): 1.42e-06 ± 1.8e-08 m2/s
mass density ([1]; 293.15 K, x1 = 0.7917): 869.04 ± 0.39 kg/m3
kinematic viscosity ([1]; 293.15 K, x1 = 0.8937): 1.32e-06 ± 1.7e-08 m2/s
mass density ([1]; 293.15 K, x1 = 0.8937): 874.45 ± 0.41 kg/m3
kinematic viscosity ([1]; 293.15 K, x1 = 0.937): 1.29e-06 ± 1.6e-08 m2/s
mass density ([1]; 293.15 K, x1 = 0.937): 876.69 ± 0.42 kg/m3
kinematic viscosity ([1]; 293.15 K, x1 = 1): 1.26e-06 ± 1.6e-08 m2/s
mass density ([1]; 293.15 K, x1 = 1): 879.96 ± 0.43 kg/m3
kinematic viscosity ([1]; 303.15 K, x1 = 0.0753): 3.81e-06 ± 4.3e-08 m2/s
mass density ([1]; 303.15 K, x1 = 0.0753): 816.9 ± 0.3 kg/m3
kinematic viscosity ([1]; 303.15 K, x1 = 0.12): 3.35e-06 ± 3.8e-08 m2/s
mass density ([1]; 303.15 K, x1 = 0.12): 819.99 ± 0.3 kg/m3
kinematic viscosity ([1]; 303.15 K, x1 = 0.1919): 2.79e-06 ± 3.2e-08 m2/s
mass density ([1]; 303.15 K, x1 = 0.1919): 824.84 ± 0.31 kg/m3
kinematic viscosity ([1]; 303.15 K, x1 = 0.2963): 2.24e-06 ± 2.7e-08 m2/s
mass density ([1]; 303.15 K, x1 = 0.2963): 831.61 ± 0.32 kg/m3
kinematic viscosity ([1]; 303.15 K, x1 = 0.4003): 1.87e-06 ± 2.3e-08 m2/s
mass density ([1]; 303.15 K, x1 = 0.4003): 838.05 ± 0.34 kg/m3
kinematic viscosity ([1]; 303.15 K, x1 = 0.4934): 1.64e-06 ± 2e-08 m2/s
mass density ([1]; 303.15 K, x1 = 0.4934): 843.6 ± 0.35 kg/m3
kinematic viscosity ([1]; 303.15 K, x1 = 0.5979): 1.45e-06 ± 1.8e-08 m2/s
mass density ([1]; 303.15 K, x1 = 0.5979): 849.6 ± 0.36 kg/m3
kinematic viscosity ([1]; 303.15 K, x1 = 0.6849): 1.32e-06 ± 1.7e-08 m2/s
mass density ([1]; 303.15 K, x1 = 0.6849): 854.38 ± 0.38 kg/m3
kinematic viscosity ([1]; 303.15 K, x1 = 0.8004): 1.2e-06 ± 1.5e-08 m2/s
mass density ([1]; 303.15 K, x1 = 0.8004): 860.53 ± 0.39 kg/m3
kinematic viscosity ([1]; 303.15 K, x1 = 0.8676): 1.15e-06 ± 1.5e-08 m2/s
mass density ([1]; 303.15 K, x1 = 0.8676): 864 ± 0.41 kg/m3
kinematic viscosity ([1]; 303.15 K, x1 = 0.9415): 1.11e-06 ± 1.4e-08 m2/s
mass density ([1]; 303.15 K, x1 = 0.9415): 867.77 ± 0.42 kg/m3
kinematic viscosity ([1]; 303.15 K, x1 = 1): 1.09e-06 ± 1.4e-08 m2/s
mass density ([1]; 303.15 K, x1 = 1): 870.73 ± 0.43 kg/m3
kinematic viscosity ([1]; 313.15 K, x1 = 0.064): 3.05e-06 ± 3.5e-08 m2/s
mass density ([1]; 313.15 K, x1 = 0.064): 808.63 ± 0.3 kg/m3
kinematic viscosity ([1]; 313.15 K, x1 = 0.1198): 2.62e-06 ± 3e-08 m2/s
mass density ([1]; 313.15 K, x1 = 0.1198): 812.36 ± 0.31 kg/m3
kinematic viscosity ([1]; 313.15 K, x1 = 0.1968): 2.21e-06 ± 2.6e-08 m2/s
mass density ([1]; 313.15 K, x1 = 0.1968): 817.35 ± 0.31 kg/m3
kinematic viscosity ([1]; 313.15 K, x1 = 0.2986): 1.83e-06 ± 2.2e-08 m2/s
mass density ([1]; 313.15 K, x1 = 0.2986): 823.7 ± 0.33 kg/m3
kinematic viscosity ([1]; 313.15 K, x1 = 0.3995): 1.56e-06 ± 1.9e-08 m2/s
mass density ([1]; 313.15 K, x1 = 0.3995): 829.76 ± 0.34 kg/m3
kinematic viscosity ([1]; 313.15 K, x1 = 0.5299): 1.32e-06 ± 1.6e-08 m2/s
mass density ([1]; 313.15 K, x1 = 0.5299): 837.23 ± 0.36 kg/m3
kinematic viscosity ([1]; 313.15 K, x1 = 0.6009): 1.22e-06 ± 1.5e-08 m2/s
mass density ([1]; 313.15 K, x1 = 0.6009): 841.13 ± 0.36 kg/m3
kinematic viscosity ([1]; 313.15 K, x1 = 0.6925): 1.12e-06 ± 1.4e-08 m2/s
mass density ([1]; 313.15 K, x1 = 0.6925): 846.03 ± 0.38 kg/m3
kinematic viscosity ([1]; 313.15 K, x1 = 0.8022): 1.04e-06 ± 1.3e-08 m2/s
mass density ([1]; 313.15 K, x1 = 0.8022): 851.72 ± 0.4 kg/m3
kinematic viscosity ([1]; 313.15 K, x1 = 0.872): 9.99e-07 ± 1.3e-08 m2/s
mass density ([1]; 313.15 K, x1 = 0.872): 855.24 ± 0.41 kg/m3
kinematic viscosity ([1]; 313.15 K, x1 = 0.9368): 9.78e-07 ± 1.3e-08 m2/s
mass density ([1]; 313.15 K, x1 = 0.9368): 858.5 ± 0.42 kg/m3
kinematic viscosity ([1]; 313.15 K, x1 = 1): 9.55e-07 ± 1.3e-08 m2/s
mass density ([1]; 313.15 K, x1 = 1): 861.65 ± 0.43 kg/m3
